Legend:
[1] = test system: Human umbilical vein endothelial cells (HUVECs); assay: Serum stimulated HUVEC cell proliferation (Sulphorhodamine B); type: cell-based; conditions: for selectivity for serum-stimulated endothelial cell proliferation: HUVEC compared to A90 and C6 tumor cell proliferation
Protocol: (§1) Human umbilical vein endothelial cells (HUVECs) (Clonetics, Palo Alto, Calif.) were seeded at 2000 cells per well in growth medium containing 2% serum (EGM, Clonetics) and allowed to attach overnight (37° C., 5% CO2, 100% humidity). C6 rat glioma cells (ATCC) were seeded at 600 cells per well and incubated in F10 medium (GIBCO, Gaithersburg, Md.) supplemented with 15% horse serum, 2.5% fetal bovine serum, and 1 mM glutamine. A90 human ovarian cells (Dr. Kent Crickard, SUNY/AB Medical School) were seeded at 600 cells per well in RPMI1640 (GIBCO) plus 10% fetal bovine serum. Plates were incubated overnight (37° C., 5% CO2, 100% humidity) to allow the cells to attach. Test compound dilutions were added to the appropriate wells, and the incubation was continued for 4 additional days. Monolayers were fixed in 10% trichloroacetic acid (30 minutes at 4° C.), washed with distilled water, and stained with Sulphorhodamine B (0.075% in 1% acetic acid) (Sigma). Plates were washed in 1% acetic acid, and the bound dye was solubilized in 100 μL unbuffered Tris base. Absorbance was measured at 540 nm using a reference filter wavelength of 630 nm. Inhibitor potency (IC50) versus cellular proliferation was determined, and endothelial cell selectivity was assessed by comparing the inhibition of HUVEC proliferation to A90 and C6 tumor cell proliferation (Table 3).

FGFR-1 = molecular target: T1, FGFR-1 (Homo sapiens, UniProt P11362); assay: Kinase inhibition assay (DELFIA), FGFr; type: biochemical; conditions: 40 μM ATP, kinase domain 20 nM
T1 construct: The kinase domains from FGFR-1, VEGFR-2, Lck, and PDGF were purified from baculoviral vectors expression systems; made in house
Protocol: (§2) The inhibition activity of the compounds in Examples 8, 9, 10, 11, and 12 and Reference Compounds A and B were evaluated using the Dissociated Enhanced Lanthanide Fluoroimmuno Assay (DELFIA) (Frank Loganzo and Carolyn Hardy. A sensitive, time-resolved fluorometric assay for the detection of inhibitors of phosphotyrosine kinases. American Biotechnology Laboratory, December 1998). DELFIA plates (EG&G Wallac, Gaithersburg, Md.) were coated overnight with Poly Glu Tyr (4:1) (Sigma, St. Louis, Mo.) at room temperature, washed (DELFIA wash reagent, EG&G Wallac), and spotted with 1 μL inhibitor dilution or DMSO carrier control per well. In some cases, kinase was autophosphorylated prior to analysis by incubating 45 minutes at 4° C. in the presence of 4 mM ATP and 25 mM MgCl2. A typical 100 μL kinase assay reaction contained 20 mM Tris (pH 7.5), 20 mM MgCl2, 50 mM NaCl, 5 mM DTT, and protease inhibitors (Mini EDTA-free protease inhibitor cocktail tablets, Boehringer Mannheim, Indianapolis, Ind.), 40 μM ATP, and an appropriate concentration of inhibitor. The reaction was allowed to continue for 30 minutes at room temperature. Plates were washed, blocked 30 minutes at room temperature (0.5% bovine serum albumin in DELFIA Assay Buffer, EG&G Wallac), and washed. One hundred microliter europium-conjugated antiphosphotyrosine antibody in DELFIA assay buffer was added to each well. Plates were incubated for 1 hour and decanted. One hundred microliter DELFIA enhancement solution (EG&G Wallac) was added and time-resolved fluorescence of the reactions determined using a VICTOR2 1420 multilable counter (EG&G Wallac). Compounds were tested from 10 through 0.0001 μM. c-Src was (Upstate Biotechnology, Lake Placid, N.Y.) was used at 3 units per reaction. The kinase domains from FGFR-1, VEGFR-2, Lck, and PDGF were purified from baculoviral vectors expression systems and were used in the assays at 20 nM.

VEGFR-2 = molecular target: T2, VEGFR-2 (Homo sapiens, UniProt P35968); assay: Kinase inhibition assay (DELFIA), VEGF-2; type: biochemical; conditions: 40 μM ATP, kinase domain 20 nM
T2 construct: The kinase domains from FGFR-1, VEGFR-2, Lck, and PDGF were purified from baculoviral vectors expression systems; made in house
Protocol: as §2, with “DELFIA” for “The inhibition activity of the compounds in Examples 8, 9, 10, 11, and 12 and Reference Compounds A and B were evaluated using the Dissociated Enhanced Lanthanide Fluoroimmuno Assay (DELFIA) (Frank Loganzo and Carolyn Hardy. A sensitive, time-resolved fluorometric assay for the detection of inhibitors of phosphotyrosine kinases. American Biotechnology Laboratory, December 1998). DELFIA”, “One hundred microliter DELFIA enhancement solution (EG&G Wallac) was added and time-resolved fluorescence of the reactions determined using a VICTOR2 1420 multilable counter (EG&G Wallac).” left out

Lck = molecular target: T3, Lck (Homo sapiens, UniProt P06239); assay: Kinase inhibition assay (DELFIA), Lck; type: biochemical; conditions: 40 μM ATP, kinase domain 20 nM
T3 construct: The kinase domains from FGFR-1, VEGFR-2, Lck, and PDGF were purified from baculoviral vectors expression systems; made in house
Protocol: as §2

c-Src = molecular target: T4, c-Src (Homo sapiens, UniProt P12931); assay: Kinase inhibition assay (DELFIA), c-Src; type: biochemical; conditions: 40 μM ATP, c-Src 3 units per reaction
T4 construct: purchased Upstate Biotechnology, Lake Placid, N.Y
Protocol: as §2

A90 human ovarian cells = assay: A90 tumor cell proliferation (Sulphorhodamine B); type: cell-based; conditions: Homo sapiens, 96 h; 4 days with compound
Protocol: as §1

C6 rat glioma cells = assay: C6 tumor cell proliferation (Sulphorhodamine B); type: cell-based; conditions: Rattus norvegicus, Glioma cell, 96 h; 4 days with compound
Protocol: as §1

[2] = Metabolic stability, mice liver S9 fraction; type: in vitro ADME; conditions: mouse, liver S9 fraction; mice liver S9, 5 μM, 37° C., 1.0 mM NADPH; read-out: MS9 in vitro metabolic half-life
Protocol: (§3) Compounds were individually incubated (5 μM in DMSO) with human and mice liver S9 fractions in 50 mM KHPO4 buffer at 37° C. in the presence of 1.0 mM NADPH and additional cofactors. At 0, 10, 20, and 40 minutes, 100 μL aliquots were removed and added to 300 μL of acetonitrile. Standard curves were prepared in a similar manner with each compound. Samples were analyzed for parent concentration by LC-MS/MS. The in vitro metabolic half-life was determined from the concentration-time plots using WinNonlin. These in vitro data represent the rate of oxidative, hydrolytic, and conjugative metabolism.

[3] = Metabolic stability, human liver S9 fraction; type: in vitro ADME; conditions: liver S9 fraction; human liver S9, 5 μM, 37° C., 1.0 mM NADPH; read-out: HS9 in vitro metabolic half-life
Protocol: as §3

in vitro = conditions: human, Caco-2
Protocol: (§4) Cell transport studies were conducted with Caco-2 cells grown on Snapwells™ between 22 and 28 days postseeding. Typically, 10 mM MES buffer (pH 6.5) with 5 mM KCl, 135 mM NaCl, and 1.8 mM CaCl2 was used for the apical side and 10 mM MOPS (pH 7.4) with 5 M KCl, 132 mM NaCl, and 1.8 mM CaCl2 with 5 mM D-glucose was used for the basolateral side. On the day of the experiment, the growth media was aspirated, and the cell monolayers were pre-equilibrated with appropriate buffers at 37° C., and TEER measurements were performed to confirm the integrity of the monolayers. Transepithelial flux measurements were made by mounting the cell monolayers in a side-by-side diffusion chamber system (Precision Instrument Design, Tahoe City, Calif.). Temperature was maintained at 37° C. with a circulating water jacket. The solutions were mixed with gas-lift circulation with 95% oxygen/5% carbon dioxide. […] Donor and receiver samples were collected at selected time intervals for up to 3 hours. […] Test compounds were analyzed using LC-MS/MS methods. Apparent permeability coefficients were calculated using the following equation: Papp=(V·dC/dt)/(A·C0) where V=volume of the receiver solution in mL; A=surface area of the monolayer in cm^2; C0=initial donor concentration in mM; and dC/dt=change of the drug concentration in the receiver chamber over time.

[4] = Caco-2 cell transport (permeability) study; conditions: human
Protocol: as §4

T1 sequence (P11362 478-767 limits assumed, species assumed): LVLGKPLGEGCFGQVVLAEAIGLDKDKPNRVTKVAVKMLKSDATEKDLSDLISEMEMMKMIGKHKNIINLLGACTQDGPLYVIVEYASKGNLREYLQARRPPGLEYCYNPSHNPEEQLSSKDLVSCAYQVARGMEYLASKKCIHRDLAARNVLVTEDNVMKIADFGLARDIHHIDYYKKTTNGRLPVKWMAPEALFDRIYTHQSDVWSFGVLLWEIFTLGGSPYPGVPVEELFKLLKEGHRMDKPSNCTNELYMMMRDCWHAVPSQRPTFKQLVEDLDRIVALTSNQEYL
T3 sequence (P06239 245-498 limits assumed, species assumed): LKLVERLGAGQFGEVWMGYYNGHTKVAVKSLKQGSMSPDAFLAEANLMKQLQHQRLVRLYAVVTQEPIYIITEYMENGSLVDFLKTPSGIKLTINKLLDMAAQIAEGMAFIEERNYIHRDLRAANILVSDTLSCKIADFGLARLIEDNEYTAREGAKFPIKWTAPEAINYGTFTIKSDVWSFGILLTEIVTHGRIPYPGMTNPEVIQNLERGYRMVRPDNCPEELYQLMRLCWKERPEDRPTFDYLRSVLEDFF
T2 sequence (P35968 834-1162 limits assumed, species assumed): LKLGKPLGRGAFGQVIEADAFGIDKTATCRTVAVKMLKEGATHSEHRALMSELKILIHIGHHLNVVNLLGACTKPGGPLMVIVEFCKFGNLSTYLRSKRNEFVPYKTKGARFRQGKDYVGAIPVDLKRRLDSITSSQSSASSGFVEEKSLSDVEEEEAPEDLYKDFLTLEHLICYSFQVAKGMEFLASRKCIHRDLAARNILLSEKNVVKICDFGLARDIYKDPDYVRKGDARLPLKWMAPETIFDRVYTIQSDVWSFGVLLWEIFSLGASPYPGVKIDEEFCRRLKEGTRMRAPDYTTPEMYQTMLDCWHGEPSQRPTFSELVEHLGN
T4 sequence (P12931 whole entry): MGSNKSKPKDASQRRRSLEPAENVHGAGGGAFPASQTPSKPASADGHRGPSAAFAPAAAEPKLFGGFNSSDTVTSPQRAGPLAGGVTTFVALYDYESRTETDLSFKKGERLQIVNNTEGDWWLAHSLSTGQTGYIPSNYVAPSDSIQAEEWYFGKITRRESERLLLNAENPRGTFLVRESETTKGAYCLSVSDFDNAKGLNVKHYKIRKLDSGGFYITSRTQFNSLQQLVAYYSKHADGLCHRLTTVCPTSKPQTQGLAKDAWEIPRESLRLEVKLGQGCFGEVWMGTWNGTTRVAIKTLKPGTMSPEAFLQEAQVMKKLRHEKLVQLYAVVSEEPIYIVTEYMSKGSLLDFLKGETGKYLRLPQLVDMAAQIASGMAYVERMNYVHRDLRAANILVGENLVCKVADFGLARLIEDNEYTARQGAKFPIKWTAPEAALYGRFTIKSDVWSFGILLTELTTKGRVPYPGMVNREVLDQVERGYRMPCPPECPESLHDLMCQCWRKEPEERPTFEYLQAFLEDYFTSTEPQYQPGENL

Compound: CCn1c(=O)c(-c2cc(OC)cc(OC)c2)cc2cnc(Nc3ccnc(C)c3)nc21 [Example 9, 6-(3,5-Dimethoxy-phenyl)-8-ethyl-2-(2-methyl-pyridin-4-ylamino)-8H-pyrido[2,3-d]pyrimidin-7-one]
- selectivity for serum-stimulated endothelial cell proliferation [1]: selective inhibitors
- melting point: > 300 °C

Compound: CCn1c(=O)c(-c2cc(OC)cc(OC)c2)cc2cnc(Nc3cc(C)nc(C)c3)nc21 [Example 10, 6-(3,5-Dimethoxy-phenyl)-2-(2,6-dimethyl-pyridin-4-ylamino)-8-ethyl-8H-pyrido[2,3-d]pyrimidin-7-one]
- IC50 (FGFR-1): 0.0008 µM
- IC50 (VEGFR-2): 0.001 µM
- Ki (Lck): 0.74 µM
- IC50 (c-Src): > 4 µM
- selectivity for serum-stimulated endothelial cell proliferation [1]: selective inhibitors

Compound: CCn1c(=O)c(-c2cc(OC)cc(OC)c2)cc2cnc(Nc3ccnc(Cl)c3)nc21 [Example 11, 6-(3,5-Dimethoxy-phenyl)-2-(2-chloro-pyridin-4-ylamino)-8-ethyl-8H-pyrido[2,3-d]pyrimidin-7-one]
- IC50 (FGFR-1): 0.0002 µM
- IC50 (VEGFR-2): 0.003 µM
- Ki (Lck): 2.77 µM
- IC50 (c-Src): > 4 µM
- selectivity for serum-stimulated endothelial cell proliferation [1]: selective inhibitors
- IC50 ([1]; Homo sapiens, HUVEC, 96 h, 2% serum growth medium, 4 days with compound): 0.013 µM
- IC50 (A90 human ovarian cells): 25 µM
- IC50 (C6 rat glioma cells): 9.68 µM

Compound: CCn1c(=O)c(-c2cc(OC)cc(OC)c2)cc2cnc(Nc3cc(OC)nc(OC)c3)nc21 [Example 12, 6-(3,5-Dimethoxy-phenyl)-2-(2,6-dimethoxy-pyridin-4-ylamino)-8-ethyl-8H-pyrido[2,3-d]pyrimidin-7-one]
- selectivity for serum-stimulated endothelial cell proliferation [1]: selective inhibitors

Compound: CCn1c(=O)c(-c2c(Cl)c(OC)cc(OC)c2Cl)cc2cnc(Nc3ccncc3)nc21 [Example 15, 6-(2,6-Dichloro-3,5-dimethoxy-phenyl)-2-(pyridin-4-ylamino)-8-ethyl-8H-pyrido[2,3-d]pyrimidin-7-one]
- melting point: 295.5 to 297 °C

Compound: COc1cc(OC)cc(-c2cc3cnc(Nc4ccncc4)nc3n(C3CCCC3)c2=O)c1 [Example 16, 6-(3,5-Dimethoxy-phenyl)-2-(pyridin-4-ylamino)-8-cyclopentyl-8H-pyrido[2,3-d]pyrimidin-7-one]
- melting point: 283 to 285 °C

Compound: COc1cc(OC)cc(-c2cc3cnc(Nc4ccncc4)nc3n(C)c2=O)c1 [Example 17, 6-(3,5-Dimethoxy-phenyl)-2-(pyridin-4-ylamino)-8-methyl-8H-pyrido[2,3-d]pyrimidin-7-one]
- melting point: 245 to 247 °C

Compound: CCN(CC)CCOc1ccc(Nc2ncc3cc(-c4c(Cl)cccc4Cl)c(=O)n(C)c3n2)cc1 [Reference A]
- half-life at 5 μM [2]: 14 min
- half-life at 5 μM [3]: 46 min
- Papp A→B (in vitro): 37.2 ×10⁻⁶ cm/s

Compound: CCN(CC)CCOc1ccc(Nc2ncc3cc(-c4cc(OC)cc(OC)c4)c(=O)n(C)c3n2)cc1 [Reference B, reference compound]
- IC50 (FGFR-1): 0.002 µM
- IC50 (VEGFR-2): 0.004 µM
- Ki (Lck): 0.06 µM
- IC50 (c-Src): 1.34 µM
- half-life at 5 μM [2]: 10 min
- half-life at 5 μM [3]: 22 min
- Papp A→B [4]: 20.1 ×10⁻⁶ cm/s

Compound: COCCc1ccc(OCC(O)CNC(C)C)cc1 (stereo not drawn) [metoprolol]
- Papp A→B [4]: ~30 ×10⁻⁶ cm/s

From patent US7022711B2, “2-(4-Pyridyl)amino-6-dialkoxyphenyl-pyrido[2,3-d]pyrimidin-7-ones” (Warner-Lambert Company, priority 2000, dated 2006)
